In patent US11512097B2, “Heterocyclic compounds as Delta-5 desaturase inhibitors and methods of use” (Amgen Inc., priority 2019, dated 2022):

The compounds below were run against T1, Delta-5-Desaturase (D5D), membrane preparations of D5D-overexpressing HEK293 6E cells (Homo sapiens, UniProt O60427) (assay: In vitro measurement of Delta-5-Desaturase inhibitory activity using DGLA-CoA and Arachidonyl-CoA mass spectrometric assays). Details: D5D membrane 10 μg/mL, one-hour incubation, average of at least two independent runs.
T1 construct: expressed in transfected cells; host or cells: HEK293 6E cells (membrane preparation)
T1 sequence (O60427 whole entry, species assumed): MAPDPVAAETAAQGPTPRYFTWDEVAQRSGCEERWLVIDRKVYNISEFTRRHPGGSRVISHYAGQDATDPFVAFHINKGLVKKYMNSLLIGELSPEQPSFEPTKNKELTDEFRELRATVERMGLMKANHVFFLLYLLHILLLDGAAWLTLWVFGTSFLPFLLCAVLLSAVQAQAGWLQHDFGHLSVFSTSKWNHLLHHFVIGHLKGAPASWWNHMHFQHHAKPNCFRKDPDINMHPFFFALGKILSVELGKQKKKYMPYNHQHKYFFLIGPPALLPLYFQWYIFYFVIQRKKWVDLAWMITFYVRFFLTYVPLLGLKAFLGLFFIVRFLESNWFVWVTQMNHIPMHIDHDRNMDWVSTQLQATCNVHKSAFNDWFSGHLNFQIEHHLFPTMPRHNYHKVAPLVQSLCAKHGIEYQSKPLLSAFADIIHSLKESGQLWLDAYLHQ
Type: biochemical
Summary of the method: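 Substrate mix (0.01 mM DGLA with NADH, ATP, coenzyme A) was incubated 1 h at room temperature with HEK293 6E D5D membranes at 10 μg/mL final, pH 7.5. Negative-mode SPE-MS/MS monitored DGLA-CoA (m/z 526.6) and arachidonyl-CoA (m/z 525.6). Inhibition normalised to DMSO and no-enzyme wells gave IC50s, mean of ≥2 runs.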

IC50 [nM]	SMILES
28	[2H]C([2H])([2H])n1c(C)cn2c(=O)c(-c3cnn(CCC(F)(F)F)c3)c(C(F)(F)F)nc12 [Example 78, 1-(^2H3)methyl-2-methyl-7-(trifluoromethyl)-6-[1-(3,3,3-trifluoropropyl)-1H-pyrazol-4-yl]-1H,5H-imidazo[1,2-a]pyrimidin-5-one]
105	Cc1cn2c(=O)c(-c3cnn(CC(F)(F)C(F)(F)F)c3)c(C(F)(F)F)nc2n1CC1COC1 [Example 90, 2-methyl-1-[(oxetan-3-yl)methyl]-6-[1-(2,2,3,3,3-pentafluoropropyl)-1H-pyrazol-4-yl]-7-(trifluoromethyl)-1H,5H-imidazo[1,2-a]pyrimidin-5-one]
6.6	Cc1cn2c(=O)c(-c3cnn(CCC(F)(F)F)c3)c(C(F)(F)F)nc2n1CC1CC1 [Example 66, 1-(cyclopropylmethyl)-2-methyl-7-(trifluoromethyl)-6-[1-(3,3,3-trifluoropropyl)-1H-pyrazol-4-yl]-1H,5H-imidazo[1,2-a]pyrimidin-5-one]
12.5	Cc1cn2c(=O)c(-c3cnn(C[C@H]4CC4(F)F)c3)c(C(F)(F)F)nc2[nH]1 (single isomer, unassigned) [Example 107]
7.1	C#CCn1c(C)cn2c(=O)c(-c3cnn(CC(F)(F)C(F)(F)F)c3)c(C(F)(F)F)nc12 [Example 85, 2-methyl-6-[1-(2,2,3,3,3-pentafluoropropyl)-1H-pyrazol-4-yl]-1-(prop-2-yn-1-yl)-7-(trifluoromethyl)-1H,5H-imidazo[1,2-a]pyrimidin-5-one]
4120	Cc1cn2c(=O)c(-c3cnn(CC(F)(F)C(F)(F)F)c3)c(C(F)(F)F)nc2n1-c1ccccc1 [Example 100, 2-methyl-6-[1-(2,2,3,3,3-pentafluoropropyl)-1H-pyrazol-4-yl]-1-phenyl-7-(trifluoromethyl)-1H,5H-imidazo[1,2-a]pyrimidin-5-one]
10500	CN(C)Cc1nn2c(=O)c(-c3cnn(CC(F)(F)C(F)(F)F)c3)c(C(F)(F)F)nc2s1 [Example 105, 2-[(dimethylamino)methyl]-6-[1-(2,2,3,3,3-pentafluoropropyl)-1H-pyrazol-4-yl]-7-(trifluoromethyl)-5H-[1,3,4]thiadiazolo[3,2-a]pyrimidin-5-one]
5150	Cc1cn2c(=O)c(-c3ccn(CC(F)(F)C(F)(F)F)n3)c(C(F)(F)F)nc2n1C [Example 70, 1,2-dimethyl-6-[1-(2,2,3,3,3-pentafluoropropyl)-1H-pyrazol-3-yl]-7-(trifluoromethyl)-1H,5H-imidazo[1,2-a]pyrimidin-5-one]
331	O=c1c(-c2cnn(CC(F)(F)C(F)(F)F)c2)c(C(F)(F)F)nc2[nH]c(Cl)cn12 [Example 49, 2-chloro-6-[1-(2,2,3,3,3-pentafluoropropyl)-1H-pyrazol-4-yl]-7-(trifluoromethyl)-1H,5H-imidazo[1,2-a]pyrimidin-5-one]
11	Cc1cn2c(=O)c(-c3cnn(CC4CC4(F)F)c3)c(C(F)(F)F)nc2n1C (stereo not drawn) [Example 59, 6-{1-[(2,2-difluorocyclopropyl)methyl]-1H-pyrazol-4-yl}-1,2-dimethyl-7-(trifluoromethyl)-1H,5H-imidazo[1,2-a]pyrimidin-5-one]
12	Cc1cn2c(=O)c(-c3cnn(C[C@@H]4CC4(F)F)c3)c(C(F)(F)F)nc2[nH]1 (single isomer, unassigned) [Example 108]
1480	Cc1cn2c(=O)c(-c3cnn(CCC(F)(F)F)c3)c(C(F)(F)F)nc2n1CCN(C)C [Example 67, 1-[2-(dimethylamino)ethyl]-2-methyl-7-(trifluoromethyl)-6-[1-(3,3,3-trifluoropropyl)-1H-pyrazol-4-yl]-1H,5H-imidazo[1,2-a]pyrimidin-5-one]
31.5	Cc1cn2c(=O)c(-c3cnn(CC(F)(F)C(F)(F)F)c3)c(C(F)(F)F)nc2n1C(C)C [Example 58, 2-methyl-6-[1-(2,2,3,3,3-pentafluoropropyl)-1H-pyrazol-4-yl]-1-(propan-2-yl)-7-(trifluoromethyl)-1H,5H-imidazo[1,2-a]pyrimidin-5-one]
11.8	C[C@H]1Cn2c(nc(C(F)(F)F)c(-c3cnn(CC(F)(F)C(F)(F)F)c3)c2=O)S1 (single isomer, unassigned) [Example 113]
6.3	Cc1cn2c(=O)c(-c3ccc(OCC(F)(F)F)cc3)c(C(F)(F)F)nc2[nH]1 [Example 75, 2-methyl-6-[4-(2,2,2-trifluoroethoxy)phenyl]-7-(trifluoromethyl)-1H,5H-imidazo[1,2-a]pyrimidin-5-one]
1170	Cc1cn2c(=O)c(-c3cnn(CCC(F)(F)F)c3)c(C(F)(F)F)nc2n1C[C@H]1CC1(F)F (single isomer, unassigned) [Example 116]
32.8	COc1cn2c(=O)c(-c3cnn(CC(F)(F)C(F)(F)F)c3)c(C(F)(F)F)nc2n1C [Example 71, 2-methoxy-1-methyl-6-[1-(2,2,3,3,3-pentafluoropropyl)-1H-pyrazol-4-yl]-7-(trifluoromethyl)-1H,5H-imidazo[1,2-a]pyrimidin-5-one]
61500	CNCc1nn2c(=O)c(-c3cnn(CC(F)(F)C(F)(F)F)c3)c(C(F)(F)F)nc2s1 [Example 106, 2-[(methylamino)methyl]-6-[1-(2,2,3,3,3-pentafluoropropyl)-1H-pyrazol-4-yl]-7-(trifluoromethyl)-5H-[1,3,4]thiadiazolo[3,2-a]pyrimidin-5-one]

Second part, the compound before the results:

SMILES	IC50 [nM]
Cn1cc(Cl)n2c(=O)c(-c3cnn(CC(F)(F)C(F)(F)F)c3)c(C(F)(F)F)nc12 [Example 44, 3-chloro-1-methyl-6-[1-(2,2,3,3,3-pentafluoropropyl)-1H-pyrazol-4-yl]-7-(trifluoromethyl)-1H,5H-imidazo[1,2-a]pyrimidin-5-one]	3210
O=C1Cn2c(nc(C(F)(F)F)c(-c3cnn(CC(F)(F)C(F)(F)F)c3)c2=O)N1 [Example 47, 6-[1-(2,2,3,3,3-pentafluoropropyl)-1H-pyrazol-4-yl]-7-(trifluoromethyl)-1H,2H,3H,5H-imidazo[1,2-a]pyrimidine-2,5-dione]	4950
O=c1c(-c2cnn(CC(F)(F)C(F)(F)F)c2)c(C(F)(F)F)nc2sc(CO)cn12 [Example 32, 2-(hydroxymethyl)-6-[1-(2,2,3,3,3-pentafluoropropyl)-1H-pyrazol-4-yl]-7-(trifluoromethyl)-5H-[1,3]thiazolo[3,2-a]pyrimidin-5-one]	45.6
O=c1c(-c2ccc(OCC(F)(F)F)cc2)c(C(F)(F)F)nc2sc(CO)cn12 [Example 33, 2-(hydroxymethyl)-6-[4-(2,2,2-trifluoroethoxy)phenyl]-7-(trifluoromethyl)-5H-[1,3]thiazolo[3,2-a]pyrimidin-5-one]	0.9
CC1Cn2c(nc(C(F)(F)F)c(-c3cnn(CC(F)(F)C(F)(F)F)c3)c2=O)S1 (stereo not drawn) [Example 24, 2-methyl-6-[1-(2,2,3,3,3-pentafluoropropyl)-1H-pyrazol-4-yl]-7-(trifluoromethyl)-2H,3H,5H-[1,3]thiazolo[3,2-a]pyrimidin-5-one]	168
Cn1ccc2nc(C(F)(F)F)c(-c3cnn(CC(F)(F)C(F)(F)F)c3)c(=O)n21 [Example 17, 1-methyl-6-[1-(2,2,3,3,3-pentafluoropropyl)-1H-pyrazol-4-yl]-5-(trifluoromethyl)-1H,7H-pyrazolo[1,5-a]pyrimidin-7-one]	363
CN1C(=O)C(C)(C)n2c1nc(C(F)(F)F)c(-c1cnn(CC(F)(F)C(F)(F)F)c1)c2=O [Example 36, 1,3,3-trimethyl-6-[1-(2,2,3,3,3-pentafluoropropyl)-1H-pyrazol-4-yl]-7-(trifluoromethyl)-1H,2H,3H,5H-imidazo[1,2-a]pyrimidine-2,5-dione]	> 67000
Cc1nn2c(=O)c(-c3ccn(CC(F)(F)C(F)(F)F)n3)c(C(F)(F)F)nc2s1 [Example 30, 2-methyl-6-[1-(2,2,3,3,3-pentafluoropropyl)-1H-pyrazol-3-yl]-7-(trifluoromethyl)-5H-[1,3,4]thiadiazolo[3,2-a]pyrimidin-5-one]	17900
O=c1c(-c2cnn(CCC(F)(F)F)c2)c(C(F)(F)F)nc2sccn12 [Example 8, 7-(trifluoromethyl)-6-[1-(3,3,3-trifluoropropyl)-1H-pyrazol-4-yl]-5H-[1,3]thiazolo[3,2-a]pyrimidin-5-one]	4.6
O=c1c(-c2cnn(CCC(F)(F)F)c2)c(C(F)(F)F)nc2sc(CO)nn12 [Example 46, 2-(hydroxymethyl)-7-(trifluoromethyl)-6-[1-(3,3,3-trifluoropropyl)-1H-pyrazol-4-yl]-5H-[1,3,4]thiadiazolo[3,2-a]pyrimidin-5-one]	36.1
O=c1c(-c2cnn(CC(F)(F)C(F)(F)F)c2)c(C(F)(F)F)nc2scc(C(F)(F)F)n12 [Example 6, 6-[1-(2,2,3,3,3-pentafluoropropyl)-1H-pyrazol-4-yl]-3,7-bis(trifluoromethyl)-5H-[1,3]thiazolo[3,2-a]pyrimidin-5-one]	271
COCc1nn2c(=O)c(-c3cnn(CC(F)(F)C(F)(F)F)c3)c(C(F)(F)F)nc2s1 [Example 42, 2-(methoxymethyl)-6-[1-(2,2,3,3,3-pentafluoropropyl)-1H-pyrazol-4-yl]-7-(trifluoromethyl)-5H-[1,3,4]thiadiazolo[3,2-a]pyrimidin-5-one]	27.4
